US9394254B2, “Antibiotic and anti-parasitic agents that modulate class II fructose 1,6-bisphosphate aldolase” (priority 2013, dated 2016)

Experiments:
MtFBA [1] = target: T1, MtFBA (Mycobacterium tuberculosis (strain ATCC 25618 / H37Rv), UniProt P9WQA3); experiment: MtFBA enzyme inhibition; format: biochemical; conditions: for % Inhibition at 1 mM: 1 mM compound
class I FBA [2] = conditions: human muscle, concentrations as high as 1 mM
[3] = target: class IIa FBA isolated from E. coli (Escherichia coli (strain K12), UniProt P0AB71); experiment: Inhibition of class IIa FBA from E. coli; format: biochemical; conditions: 25 μM HCA
Chain of class IIa FBA isolated from E. coli (P0AB71 whole entry, looked up): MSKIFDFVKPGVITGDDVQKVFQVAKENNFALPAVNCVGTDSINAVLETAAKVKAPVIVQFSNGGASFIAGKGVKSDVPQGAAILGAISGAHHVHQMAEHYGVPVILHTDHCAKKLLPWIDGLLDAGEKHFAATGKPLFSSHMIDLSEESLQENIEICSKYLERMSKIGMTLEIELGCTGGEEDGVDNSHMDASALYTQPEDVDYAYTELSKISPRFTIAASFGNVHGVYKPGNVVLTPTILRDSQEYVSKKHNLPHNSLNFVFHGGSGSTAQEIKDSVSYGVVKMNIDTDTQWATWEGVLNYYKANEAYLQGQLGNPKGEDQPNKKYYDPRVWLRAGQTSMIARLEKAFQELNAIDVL
Method: Class II FBAs can be broken down into two families (a/b) whose distribution among bacterium is independent of Gram staining determined phylogenetic groups. In this illustration, a single concentration of HCA at 25 μM was tested for the inhibition of class IIa FBA isolated from E. coli and class IIb FBA originating from methicillin-resistant S. aureus (MRSA).
Error bars represent standard deviations from the average.

class I FBA [4] = target: class I FBA (Oryctolagus cuniculus (Rabbit), UniProt P00883); experiment: Inhibition of class I FBA from rabbit muscle; format: biochemical; conditions: concentrations as high as 1 mM
Chain of class I FBA (Oryctolagus cuniculus (Rabbit), UniProt P00883) (P00883 whole entry, looked up): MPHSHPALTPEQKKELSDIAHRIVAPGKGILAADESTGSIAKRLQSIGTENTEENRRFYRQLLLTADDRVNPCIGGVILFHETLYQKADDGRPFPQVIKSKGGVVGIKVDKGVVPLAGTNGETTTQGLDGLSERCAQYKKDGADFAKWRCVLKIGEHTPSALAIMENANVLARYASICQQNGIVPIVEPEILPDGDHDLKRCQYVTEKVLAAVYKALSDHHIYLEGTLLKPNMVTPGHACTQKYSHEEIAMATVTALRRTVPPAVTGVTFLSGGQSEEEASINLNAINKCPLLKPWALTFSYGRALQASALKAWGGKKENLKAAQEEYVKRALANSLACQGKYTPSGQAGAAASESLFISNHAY

[5] = Calorimetric titration into MtFBA buffer with 200 μM ZnCl2 (no enzyme); format: binding; conditions: 1 mM compound titrated into MtFBA buffer with 200 μM ZnCl2, 25° C.
Method: FIG. 5 provides data from the calorimetric titration of HCA. […] Top graphs represent raw heat data and bottom graphs are integrated heat peaks gained at 25° C.
Top graphs represent raw heat data and bottom graphs are integrated heat peaks gained at 25° C. from 25 injections of Regis 5 into 170 μL of 20 mM Tricine pH 8.0, 100 mM NaCl, and either (a) 700 μM MtFBA with 100 μM ZnCl2 or (b) 200 μM ZnCl2. Data sets were collected in duplicate, analyzed with NanoAnalyze™ software, and fit to an independent model concurrently with a bank constant model to adjust for a heat of dilution.

MtFBA [6] = target: T1, MtFBA; format: binding; conditions: 25° C.

Which IC50 (MtFBA [1]; FIG. 6A inset, serial dilutions of compound) does the source give for `O=C(O)c1ccc2cccc(O)c2n1` [Compound 5] here?
The IC50 was 17 ± 2.1 µM.

What about the IC50 (MtFBA [1]; SAR table) of the same compound?
Its IC50 is 14 ± 2 µM.

And the inhibition at 1000 µM (MtFBA [1]; read-out: % Inhibition at 1 mM)?
Its inhibition at 1000 µM is 95 ± 4.1%.

And the “inhibition of class I FBA” value (class I FBA [2])?
The value was “no inhibitory affects”.

What about the “% inhibition” value [3] of the same compound?
Its value is 42.2±2.8%.

And the “inhibition of class I FBA” value (class I FBA [4])?
Its value is “no inhibitory affects”.

What about the “binding to buffer Zn(II)” value [5] of the same compound?
The value was “no appreciable binding”.

What about the “n (ITC stoichiometry)” value (MtFBA [6]) of the same compound?
Its value is 0.94±0.14.

What about the ΔH (MtFBA [6]; ITC) of the same compound?
The ΔH was -6.867 ± 0.139 kcal/mol.

And the ΔS (MtFBA [6]; ITC)?
Its ΔS is 2.44±3.12 J mol^−1 K^−1.

What about the Kd (MtFBA [6]; ITC, 5 mM compound into 700 μM MtFBA, 20 mM Tricine pH 8.0, 100 mM NaCl, 100 μM ZnCl2, read-out: dissociation constant Kd) of the same compound?
Its Kd is 6.94 ± 0.97 µM.

For `O=C(O)c1ccc2cc(F)cc(O)c2n1` [Compound 6F-HCA, 6-fluoro-8-hydroxyquinoline-2-carboxylic acid], which “increase in potency toward the enzyme relative to HCA” value (MtFBA [1]; fluorine at position 6 versus HCA) is on record?
Its value is 50%.

What does the source list for `Oc1cccc2cccnc12` [Compound 6]?
% Inhibition at 1 mM (MtFBA [1]): 54 ± 18%; IC50 (MtFBA [1]; SAR table): 300 ± 67 µM

With `Nc1cccc2cccnc12` [Compound 18] as the compound, how does the “% Inhibition at 1 mM” value (MtFBA [1]) read?
Its value is 68 ± 2.2%.

And the IC50 (MtFBA [1]; SAR table)?
The IC50 was 79 ± 10 µM.

With `CS(=O)(=O)Nc1ccc2cccc(O)c2n1` [Compound 34] as the compound, how does the “% Inhibition at 1 mM” value (MtFBA [1]) read?
The value was 12 ± 5.4%.

And the IC50 (MtFBA [1]; SAR table)?
Its IC50 is 570 ± 87 µM.
